The test system of experiment [1] is T1, TAAR348 (trace amine-associated receptor (TAAR)-like receptor 348).
T1 construct: full-length ORF (348 residues) with N-terminal Rho-tag, expressed in HEK293T
In words: TR-FRET cAMP assay in TAAR348-expressing HEK293T cells; inhibition of […] spermine response. Type of experiment: cell-based, Petromyzon marinus. (In general: TR-FRET usually uses a lanthanide donor and a delayed reading to cut background.)

The test system is the same in experiment [2]. The experiment can be described thus: TR-FRET cAMP assay in TAAR348-expressing HEK293T cells (agonist). Type of experiment: cell-based, Petromyzon marinus.
In experiment [3] the test system is TAAR348 (trace amine-associated receptor (TAAR)-like receptor 348).

Read-outs that look alike come from different tables or passages of the source.

With `C1CNCCNCCNCCN1` [SP20, 1,4,7,10-tetraazacyclododecane], in experiment [1], half-maximal inhibition (IC50) was put at 0.6 ± 0.1 µM. Regarding `NCCCNCCCCNCCCNC(=O)Cc1cccc2ccccc12` [SP21, 1-naphthylacetyl spermine], in experiment [2], the half-maximal effective concentration (EC50) (as a rule, the concentration at which the effect is half-maximal) was determined as 5 ± 1 µM. As to `NCCCNCCCCNCCCN` [spermine], the half-maximal effective concentration (EC50) in experiment [3] turned out to be 34 ± 1 µM.

(Values after paper PMC6615597, “Spermine in semen of male sea lamprey acts as a sex pheromone” (PLoS Biology, 2019).)
